One compound from patent publication US20230048888A1, “USE OF TRIAZOLOTRIAZINE DERIVATIVE IN TREATMENT OF DISEASES” (ZHEJIANG VIMGREEN PHARMACEUTICALS, LTD., priority 2019, published 2023) can be followed below.

In one test the target is T1, human ADORA3 (Homo sapiens, UniProt P0DMS8).
T1 construct: host or cells: CHO
T1 sequence (P0DMS8 1-318): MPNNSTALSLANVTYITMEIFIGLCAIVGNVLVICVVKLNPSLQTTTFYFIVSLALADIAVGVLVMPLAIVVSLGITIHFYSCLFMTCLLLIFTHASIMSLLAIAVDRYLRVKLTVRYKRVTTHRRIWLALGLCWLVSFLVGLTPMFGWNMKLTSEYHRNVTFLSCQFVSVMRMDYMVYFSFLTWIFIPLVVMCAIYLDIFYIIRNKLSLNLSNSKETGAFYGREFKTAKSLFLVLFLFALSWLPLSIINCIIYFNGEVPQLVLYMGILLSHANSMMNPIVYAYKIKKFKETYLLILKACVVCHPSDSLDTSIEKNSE
In words: Calcium flow test (FLIPR), ADORA3 stably transfected CHO. It counts as cell-based. The note with it: Table 9. Here is the method:
In this experiment, stably transfected cell lines over-expressing adenosine receptor coupled to human Gq were used, and the antagonistic function of Compound 22 was evaluated by testing the changes in intracellular calcium ion concentration. The binding of the A2AR agonist to A2AR could activate a downstream pathway to increase the intracellular calcium ion concentration. The antagonist would competitively occupy the binding site where the agonist binds to A2AR, thereby interrupting the intracellular signal transduction and leading to a change in the intracellular calcium ion concentration. By detecting the strength of the intracellular calcium ion signal, the antagonistic activities of the compound on human ADORA1, ADORA2A, ADORA2B and ADORA3 adenosine receptors were determined. […]
7) The FLIPR instrument software was operated; following a set program, 10 μL of experimental buffer salt solution was added to the cell plate; and fluorescence signals were read. Then, 10 μL of the reference compound of agonist at a predetermined concentration was added to the cell plate, and the fluorescence signals were read. After reading, data was exported by means of “Max-Min” and “Read 91 to Maximum allowed” in the software, the EC80 of each cell line was calculated, and an agonist with a concentration of 6×EC80 was prepared.
9) The FLIPR instrument software was operated; following a set program, 10 μL of the test compound and 10 μL of the reference compound were added at a predetermined concentration to the cell plate; and the fluorescence signals were read. Then, 10 μL of the reference compound of agonist at a concentration of 6×EC80 was added to the cell plate, and the fluorescence signal were read. For the antagonist detection of the compound, data was exported by means of “Max-Min” and “Read 1 to 90” in the software. […]

Test [1] addresses T2, Human adenosine ADORA3 receptor membrane protein (Homo sapiens, UniProt P0DMS8).
T2 construct: purchased PerkinElmer ES-012-M400UA
T2 sequence (P0DMS8 1-318): T1 sequence (P0DMS8 1-318)
The test can be described thus: Radioisotope ligand competitive binding, ADORA3 ([3H] HEMADO). The note with it: ADORA3 (IC50, nM, n = 3), binding test. The procedure:
ADORA3: 25 mM HEPES pH 7.4, 10 mM MgCl2, 1 mM CaCl2, 0.5% BSA
4) Preparation of compounds: the test compounds and the reference compounds were separately diluted with 100% DMSO. For the test compounds, the initial concentration was 10 μM, with double secondary wells; 4-fold gradient dilution was carried out at 10 points; and the final working concentration was 0.038 nM-10 μM (for the second and third detection of the test compound against an ADORA2A target, the initial concentration was 2 μM, with double secondary wells, 4-fold gradient dilution was carried out at 10 points, and the final working concentration was 0.0076 nM-2 μM). For the ADORA1, ADORA2A, ADORA2B, and ADORA3 reference compounds, the initial concentration was 1 μM, with double secondary wells, 4-fold gradient dilution was carried out at 10 points, and the final working concentration was 0.0038 nM-1 μM.
1 μL of a sample to be tested and 1 μL of a reference compound were added to a 96-well plate in sequence. […] 100 μL of cells and 100 μL of isotopes were added to all experimental wells. The 96-well plate was sealed; ADORA1, ADORA2B, and ADORA3 were incubated for 1 hour on a shaker (300 rpm) at room temperature (22° C.); and ADORA2A was incubated for 2 hours on a shaker (300 rpm) at room temperature (22° C.). At the same time, a GF/C filter plate was soaked with ADORA1, ADORA2A, ADORA2B, and ADORA3 by using 0.3% PEI for at least 30 minutes at room temperature, at 50 μL/well. After the incubation was completed, the incubated reaction system was collected onto the GF/C filter plate with a Harvester, washed 4 times and then dried for 0.5 hours in an oven at 50° C. The bottom of the dried GF/C filter plate was sealed with a film, 50 μL of scintillation solution was added to each well, which was then sealed with a Top-seal-A film. With Microbeta readings, the data was analyzed by GraphPad Prism 5.0.
% Inhibition=100×(1−(Sample_raw value−Low control_Average)/(High control_Average−Low control_Average))
The data was fitted with “log(inhibitor) vs response-variable slope” in GraphPad Prism 5.0 to obtain IC50.

For orientation: IC50 means the concentration at which inhibition is half-maximal. For the compound `Nc1nc2ccc(Cl)cc2c2nc(-c3ccco3)nn12` [CGS-15943, reference compound], the IC50 at human ADORA3 was found to be 32.1 ± 4.52 nM; in test [1] (Table 10 (IC50)), 18 ± 11.4 nM; in test [1] (Table 11), 14.5 nM.
